What was measured:
[1] = background statement, no test described; cited from earlier work
[2] = system: carrageenin-induced paw oedema; test: inhibition of experimentally-induced (carrageenin) paw oedema in rats; type: in vivo; settings: rats fasted 18 hours; compound in aqueous 1% tragacanth, 25 ml/kg, 45 min before subplantar 0.1 ml 1% carrageenin; dose not given
Method: For this purpose, the well known test for the inhibition of experimentally-induced paw oedema in rats was used. The test was carried out as follows.
The rats are fasted 18 hours prior to dosing, but water is made available to them. Test compounds are then administered in aqueous 1% tragacanth at a dose volume of 25 ml/kg body weight. One group of rats is given vehicle only at the same dose volume. Forty five minutes later, all rats are given a subplantar injection of 0.1 ml of a 1% solution of carrageenin in 0.9% saline in the left hind paw. The volume of this paw is measured before and after the carrageenin injection using a volume differential meter designed by Ugo Basile.
Anti-inflammatory activity is measured as the percentage inhibition of paw oedema in the drug treated animals compared to the controls.

Structure (SMILES) | anti-inflammatory activity compared with Alclofenac [1] | Anti-inflammatory activity (percentage inhibition of paw oedema compared to controls) [2] [%]
CCCOc1ccc(CC(=O)O)cc1Cl [4-n-propoxy-3-chloro-phenylacetic acid] | much reduced anti-inflammatory activity as compared with Alclofenac | 
C=CCOc1ccc(CC(=O)O)cc1Cl [Compound 1, 4-allyloxy-3-chloro-phenylacetic acid, reference compound] |  | 36.0
C=CCOc1ccc(CC(=O)NCC(=O)O)cc1Cl [Compound 3, 4-allyloxy-3-chloro-phenylacetyl-glycine] |  | 34.6
C=CCOc1ccc(CC(=O)NC(C)C(=O)OC)cc1Cl (racemic) [Compound 2, 4-allyloxy-3-chloro-phenylacetyl-(DL)-alanine methyl ester] |  | 23.1
CCCOc1ccc(CC(=O)NCC(=O)O)cc1Cl [Compound 4, 4-n-propoxy-3-chloro-phenylacetyl-glycine] |  | 35.2
